The IC50 is the concentration at which inhibition is half-maximal.

Calls of active or inactive are those of the source. No cut-off for these calls is given here. Some results are limits rather than exact numbers.

The values that follow come from ChEMBL document CHEMBL5380822, “Design, Synthesis, and Biological Evaluation of Novel Hybrids Containing Dihydrochalcone as Tyrosinase Inhibitors to Treat Skin Hyperpigmentation” (J Med Chem, 2023).

Data set [1] addresses T1, Mushroom tyrosinase (Agaricus bisporus, UniProt O42713+Q00024+C7FF04+C7FF05). The data set is described as follows: Inhibition of Agaricus bisporus tyrosinase using L-dopa as substrate preincubated with compound for 20 mins followed by substrate addition measured after 5 mins by absorbance based assay.
For data set [2], the target named is T1, Mushroom tyrosinase. The data set is described as follows: Inhibition of Agaricus bisporus tyrosinase using L-tyrosine as substrate preincubated with compound for 20 mins followed by substrate addition measured after 10 mins by absorbance based assay.
Data set [3] concerns B16-F10. The data set can be described thus: Anti-melanogenic activity against alpha-MSH-stimulated mouse B16-F10 cells assessed as decrease in melanin content incubated for 24 hrs by absorbance based assay. The following applies: dose 5-25 µM. The class given is functional, cell-based.
The subject of data set [4] is A-375. The data set can be described thus: Anti-melanogenic activity against alpha-MSH-stimulated human A-375 cells assessed as decrease in melanin content at 20 uM incubated for 24 hrs by absorbance based assay. The class given is functional, cell-based.
For data set [5], the system named is B16-F10. The data set is described as follows: Cytotoxicity against mouse B16-F10 cells at 50 uM incubated for 72 hrs by MTT assay. The class given is toxicity, cell-based. The following applies: b16-f10, 72 h. In general terms: Tetrazolium dyes change colour on reduction, which living cells bring about.
Data set [6] deals with T2, Tyrosinase (Mus musculus) (UniProt P11344).
T2 sequence (whole entry): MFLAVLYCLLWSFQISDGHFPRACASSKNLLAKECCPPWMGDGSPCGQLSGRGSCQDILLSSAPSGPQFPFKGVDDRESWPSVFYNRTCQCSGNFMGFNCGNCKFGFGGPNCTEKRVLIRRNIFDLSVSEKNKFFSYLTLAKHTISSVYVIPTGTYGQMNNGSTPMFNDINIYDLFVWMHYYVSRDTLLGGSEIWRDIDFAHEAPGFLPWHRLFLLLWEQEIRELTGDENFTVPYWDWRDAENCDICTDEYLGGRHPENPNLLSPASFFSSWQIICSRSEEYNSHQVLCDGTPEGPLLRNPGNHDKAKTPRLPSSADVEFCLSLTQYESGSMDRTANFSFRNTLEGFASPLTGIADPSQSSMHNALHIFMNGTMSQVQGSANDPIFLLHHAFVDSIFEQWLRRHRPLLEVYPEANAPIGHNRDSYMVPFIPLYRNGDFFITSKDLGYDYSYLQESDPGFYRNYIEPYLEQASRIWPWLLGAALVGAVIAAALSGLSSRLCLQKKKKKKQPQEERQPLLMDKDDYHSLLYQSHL
The data set is described as follows: Inhibition of TYR in alpha-MSH-stimulated mouse B16-F10 cells using L-Dopa as substrate incubated for 24 hrs by absorbance based assay. The note with it: dose 5-25 µM. Type of data set: cell-based.

The subject of data set [7] is A-375. The data set is described as follows: Cytotoxicity against human A-375 cells at 50 uM incubated for 72 hrs by MTT assay. Type of data set: toxicity, cell-based. The note with it: a-375, 72 h.
Data set [8] has as its target T3, Tyrosinase (Homo sapiens) (UniProt P14679).
T3 sequence (whole entry): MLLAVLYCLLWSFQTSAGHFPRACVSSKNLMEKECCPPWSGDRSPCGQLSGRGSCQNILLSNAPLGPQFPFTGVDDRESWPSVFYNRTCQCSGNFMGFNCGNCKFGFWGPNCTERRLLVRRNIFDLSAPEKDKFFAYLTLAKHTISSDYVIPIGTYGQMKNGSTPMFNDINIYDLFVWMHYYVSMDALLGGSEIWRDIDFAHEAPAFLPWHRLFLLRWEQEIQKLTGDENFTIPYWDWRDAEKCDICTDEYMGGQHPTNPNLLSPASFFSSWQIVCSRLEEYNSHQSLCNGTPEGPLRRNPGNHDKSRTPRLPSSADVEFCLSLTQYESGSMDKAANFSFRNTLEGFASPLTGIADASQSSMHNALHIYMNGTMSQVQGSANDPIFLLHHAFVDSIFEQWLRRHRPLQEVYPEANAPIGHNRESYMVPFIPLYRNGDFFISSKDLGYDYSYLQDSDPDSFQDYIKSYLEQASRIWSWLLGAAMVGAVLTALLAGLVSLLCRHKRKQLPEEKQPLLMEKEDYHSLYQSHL
The data set is described as follows: Inhibition of TYR in alpha-MSH-stimulated human A-375 cells using L-Dopa as substrate at 20 uM incubated for 24 hrs by absorbance based assay. The class given is cell-based.

Data set [9] in a line: Permeability in pig skin explant Franz diffusion cell model assessed as compound remaining transdermal at 2 mg/ml, TOPp measured for 0.5 to 24 hrs by HPLC analysis. Type of data set: ADME, tissue-based, Sus scrofa, Skin of body. The following applies: topical_or_ocular, time 0.5-24 hrs.
The subject of data set [10] is Cavia porcellus. The data set is described as follows: Anti-melanogenic activity in guinea pig model of UV-induced skin pigmentation assessed as reduction in melanin production at 1 mM administered topically as CP formulation for 2 weeks measured after 3 days by Fontana-Masson staining based analysis. The following applies: time 17.0 day. Type of data set: functional, organism-based.

Data set [11] is described as follows: Permeability in pig skin explant Franz diffusion cell model assessed as compound remaining intradermal at 2 mg/ml, TOPp measured after 2 hrs by HPLC analysis. Type of data set: ADME, tissue-based, Sus scrofa, Skin of body. The note with it: topical_or_ocular.
For data set [12], the system named is Cavia porcellus. The data set is described as follows: Anti-melanogenic activity in guinea pig model of UV-induced skin pigmentation assessed as healing of scorching skin administered topically for 2 weeks measured after 3 days by Fontana-Masson staining based analysis. Type of data set: functional, organism-based. The following applies: dose 0.5-1 mM, time 17.0 day.

The nature of data set [13]: Permeability in pig skin explant Franz diffusion cell model assessed as compound remaining intradermal at 2 mg/ml, TOPp measured after 4 hrs by HPLC analysis. The note with it: topical_or_ocular. Type of data set: ADME, tissue-based, Sus scrofa, Skin of body.
The subject of data set [14] is Cavia porcellus. The data set can be described thus: Anti-melanogenic activity in guinea pig model of UV-induced skin pigmentation assessed as inhibition of melanin production administered topically for 2 weeks measured after 3 days by Fontana-Masson staining based analysis. Type of data set: functional, organism-based. The following applies: time 17.0 day.
The subject of data set [15] is B16-F10. The data set can be described thus: Downregulation of MiTF level in mouse B16-F10 cells incubated for 72 hrs by Western blot analysis. The class given is functional, cell-based. The following applies: dose 0.1-2 µM. Background: In western blotting, separated proteins are transferred to a membrane and probed.
Data set [16] deals with B16-F10. The data set is described as follows: Downregulation of TYR in mouse B16-F10 cells incubated for 72 hrs by Western blot analysis. The class given is functional, cell-based. The following applies: dose 0.1-2 µM.
Data set [17] in a line: Drug distribution in pig skin epidermis at 2 mg/ml, TOPp measured after 2 hrs by OrbiSIMS imaging analysis. The following applies: topical_or_ocular. Type of data set: ADME, tissue-based, Sus scrofa.
Data set [18] concerns Cavia porcellus. The data set is described as follows: Anti-melanogenic activity in guinea pig model of UV-induced skin pigmentation assessed as reduction in melanin production at 1 mM administered topically as PG formulation for 2 weeks measured after 3 days by Fontana-Masson staining based analysis. The class given is functional, organism-based. The following applies: time 17.0 day.

Take `O=C(CCc1cccc([N+](=O)[O-])c1)c1ccc(O)cc1O`: the IC50 at Mushroom tyrosinase [1] and on Mushroom tyrosinase [2] was above 10 µM throughout.

With `O=C(CCc1cccc(O)c1)c1ccc(O)cc1O`, the IC50 at Mushroom tyrosinase [1] and on Mushroom tyrosinase [2] was above 10 µM in each case.

With `O=C(CCc1ccc(O)cc1)c1ccc(O)cc1O` [DAVIDIGENIN], the IC50 at Mushroom tyrosinase [1] and on Mushroom tyrosinase [2] was above 10 µM in each case.

Regarding `COc1ccc(CCC(=O)c2ccc(O)cc2O)cc1O`, the IC50 at Mushroom tyrosinase [1] and on Mushroom tyrosinase [2] was above 10 µM each time.

Take `O=C(CCc1ccc(O)cc1O)c1ccccc1`: the IC50 at Mushroom tyrosinase [1] turned out to be 0.625 µM; on Mushroom tyrosinase [2] it was 0.183 µM.

With `O=C(CCc1ccc(O)cc1O)c1ccccc1O`, the IC50 on Mushroom tyrosinase [1] turned out to be 0.286 µM; at Mushroom tyrosinase [2], 0.069 µM.

`COc1cc(C(=O)CCc2ccc(O)cc2O)ccc1O`: the IC50 worked out at 0.165 µM on Mushroom tyrosinase [1] and 0.054 µM on Mushroom tyrosinase [2]. Also, the Activity entry in the data set on B16-F10 [3] is “Dose-Dependent Effect”; with B16-F10 [5] it was “Non-Toxic”; with A-375 [7] it was “Non-Toxic”. The outcome in the data set on A-375 [4] was Active. In [6], the inhibition result is “Dose-Dependent Effect”. Further, in [8], the inhibition entry is “Active”.

With `COc1ccc(CCC(=O)c2ccc(O)cc2O)c(OC)c1OC`, the IC50 at Mushroom tyrosinase [1] and at Mushroom tyrosinase [2] was above 10 µM each time.

In the case of `CC(C)c1ccc(C(=O)CCc2ccc(O)cc2O)cc1`, the IC50 on Mushroom tyrosinase [1] is 0.644 µM; at Mushroom tyrosinase [2], 0.232 µM.

As to `COc1ccc(C(=O)CCc2ccc(O)cc2O)cc1`, the IC50 was 0.171 µM at Mushroom tyrosinase [1] and 0.089 µM at Mushroom tyrosinase [2].

With `COc1ccc(C(=O)CCc2ccc(O)cc2)c(O)c1`, the IC50 at Mushroom tyrosinase [1] and on Mushroom tyrosinase [2] was above 10 µM in each case.

Consider `COc1cc(CCC(=O)c2ccc(O)cc2O)cc(OC)c1OC`, for which the IC50 at Mushroom tyrosinase [1] and on Mushroom tyrosinase [2] was above 10 µM each time.

For the molecule `COc1ccc(C(=O)CCc2ccccc2O)c(O)c1`, the IC50 at Mushroom tyrosinase [1] and at Mushroom tyrosinase [2] was above 10 µM throughout.

As for `O=C(CCc1ccc(O)c(O)c1)c1ccc(O)cc1O`, the IC50 on Mushroom tyrosinase [1] and on Mushroom tyrosinase [2] was above 10 µM in each case.

For `O=C(CCc1ccc(O)cc1O)c1ccc(Br)cc1`, the IC50 at Mushroom tyrosinase [1] came to 0.184 µM; on Mushroom tyrosinase [2], 0.11 µM.

`Cc1cccc(C(=O)CCc2ccc(O)cc2O)c1`: the IC50 came to 0.189 µM on Mushroom tyrosinase [1] and 0.133 µM at Mushroom tyrosinase [2].

Consider `COc1ccc(C(=O)CCc2ccc(O)cc2)cc1`, for which the half-inhibitory concentration (IC50) at Mushroom tyrosinase [1] and on Mushroom tyrosinase [2] was above 10 µM throughout.

In the case of `COc1ccc(CCC(=O)c2ccc(O)cc2O)cc1OC`, the half-maximal inhibitory concentration (IC50) on Mushroom tyrosinase [1] and at Mushroom tyrosinase [2] was above 10 µM in each case.

Consider `O=C(CCc1ccc(O)cc1O)c1ccc(Cl)cc1Cl`, for which the IC50 on Mushroom tyrosinase [1] turned out to be 0.189 µM; on Mushroom tyrosinase [2] it was 0.119 µM.

For `COc1ccc(C(=O)CCc2ccc(O)cc2O)c(O)c1`, the values for the IC50 on Mushroom tyrosinase [1] and on Mushroom tyrosinase [2] were 0.183 µM and 0.069 µM, respectively.

For the molecule `Cc1ccccc1CCC(=O)c1ccc(O)cc1O`, the half-maximal inhibitory concentration (IC50) at Mushroom tyrosinase [1] and at Mushroom tyrosinase [2] was above 10 µM throughout.

For the molecule `Cc1ccccc1C(=O)CCc1ccc(O)cc1O`, the IC50 on Mushroom tyrosinase [1] came to 0.239 µM; on Mushroom tyrosinase [2], 0.123 µM.

Regarding `COc1ccc(CCC(=O)c2ccc(O)cc2O)c(O)c1`, the IC50 at Mushroom tyrosinase [1] and at Mushroom tyrosinase [2] was above 10 µM throughout.

For `O=C(CCc1ccc(O)cc1O)c1ccc(O)cc1O`, the Activity was 1.2% in data set [9]; 26.77% in data set [11]; “Dose-Dependent Effect” in the data set with B16-F10 [3]; “Dose-Dependent Effect” with Cavia porcellus [12]; 3.56% in [13]; “Dose-Dependent Effect” in the data set with Cavia porcellus [14]. The Activity entry in the data set with B16-F10 [15] is “Dose-Dependent Effect”; with B16-F10 [16] it was “Dose-Dependent Effect”; in the data set on B16-F10 [5] it was “Non-Toxic”; in the data set on A-375 [7], “Toxic”. Also, the result in the data set on Cavia porcellus [10], in the data set on A-375 [4] and in the data set on Cavia porcellus [18] was Active. For the same molecule, the figures for the IC50 at Mushroom tyrosinase [1] and on Mushroom tyrosinase [2] were 0.064 µM and 0.05 µM, respectively. In addition, the inhibition result in [6] is “Dose-Dependent Effect”. Moreover, in data set [17], the Drug uptake result is reported as “Active”. The inhibition result in [8] is “Active”.

Turning to `COc1cccc(CCC(=O)c2ccc(O)cc2O)c1OC`, the IC50 at Mushroom tyrosinase [1] and on Mushroom tyrosinase [2] was above 10 µM throughout.

For `O=C(CCc1ccc(O)cc1O)c1ccc(-c2ccccc2)cc1`, the IC50 at Mushroom tyrosinase [1] was 1.431 µM; at Mushroom tyrosinase [2], 0.331 µM.

As to `O=C(CCc1ccccc1O)c1ccc(O)cc1O`, the IC50 at Mushroom tyrosinase [1] and on Mushroom tyrosinase [2] was above 10 µM throughout.

As to `COc1ccc(CCC(=O)c2ccc(O)cc2O)c(OC)c1`, the IC50 at Mushroom tyrosinase [1] and on Mushroom tyrosinase [2] was above 10 µM each time.

For `COc1ccc(C(=O)CCc2ccc(O)cc2O)cc1O`, the IC50 at Mushroom tyrosinase [1] was 0.245 µM; at Mushroom tyrosinase [2] it was 0.069 µM.

As to `COc1ccc(C(=O)CCc2ccccc2O)cc1`, the IC50 at Mushroom tyrosinase [1] and at Mushroom tyrosinase [2] was above 10 µM each time.

As for `O=C(CCc1ccc(O)cc1O)c1ccc(O)cc1`, the IC50 is 0.212 µM at Mushroom tyrosinase [1] and 0.072 µM on Mushroom tyrosinase [2].

Take `COc1ccc(C(=O)CCc2ccc(OC)cc2OC)cc1`: the IC50 at Mushroom tyrosinase [1] and on Mushroom tyrosinase [2] was above 10 µM throughout.

As to `COc1cccc(CCC(=O)c2ccc(O)cc2O)c1`, the IC50 on Mushroom tyrosinase [1] and on Mushroom tyrosinase [2] was above 10 µM in each case.
